Laboratory results as given in paper PMC7769008 (Journal of medicinal chemistry, 2020).

What was measured:
HeLa cells = details: 100 μM
in vitro = details: PAMPA, pH 7.4
[1] = mice, 20 mg/kg, IP, whole period of the experiment
[2] = system: Plk1 localization to centrosomes and kinetochores; assay: Plk1 localization and spindle morphology by immunostaining in HeLa cells; assay type: cell-based; details: 100 μM, 12 h
[3] = system: 45 receptors and channels; details: 10 μM; radioligand binding and functional assays
[4] = pH 7.4
[5] = MLM incubation

Q: For `CCCn1c(=O)c2cccc(F)c2n2c(SC)nnc12` [Compound 145, 9-Fluoro-1-(methylthio)-4-propyl-[1,2,4]triazolo[4,3-a]-quinazolin-5(4H)-one], which “ability to induce mitotic arrest and an antiproliferation effect” value (from here on “ability”) (HeLa cells) is on record?
A: The value was “effectively induced rounded cells with apoptotic or aberrant chromosome morphologies”.

Q: With `CCCn1c(=O)c2ccccc2n2c(=S)n(CN(C)C3CC3)nc12` [Compound 35, 2-((Cyclopropyl(methyl)amino)methyl)-4-propyl-1-thioxo-2,4-di-hydro-[1,2,4]triazolo[4,3-a]quinazolin-5(1H)-one] as the compound, how does the “Solub. (μg/ml)” value (Aqueous solubility) read?
A: Its value is “Insol”.

Q: With `COc1cccc(CC(=O)NCCCn2c(=O)c3cc(F)ccc3n3c(=S)[nH]nc23)c1` [Compound 129, N-(3-(7-Fluoro-5-oxo-1-thioxo-1,2-dihydro-[1,2,4]triazolo[4,3-a]-quinazolin-4(5H)-yl)propyl)-2-(3-methoxyphenyl)acetamide] as the compound, how does the Papp (in vitro) read?
A: Its Papp is 3110 nm/s.

Q: For `CN(C)CCn1c(=O)c2cc(F)ccc2n2c(=S)[nH]nc12` [Compound 70, 4-(2-(Dimethylamino)ethyl)-7-fluoro-1-thioxo-2,4-dihydro-[1,2,4]triazolo[4,3-a]quinazolin-5(1H)-one], which Papp (in vitro) is on record?
A: The Papp was 1770 nm/s.

Q: Which signs of toxicity [1] does the source give for `CCCn1c(=O)c2ccccc2n2c(SC)nnc12` [Compound 143, 1-(Methylthio)-4-propyl-[1,2,4]triazolo[4,3-a]quinazolin-5(4H)-one] here?
A: Its signs of toxicity is “no signs of toxicity”.

Q: And the “ability” value (HeLa cells)?
A: Its value is “effectively induced rounded cells with apoptotic or aberrant chromosome morphologies”.

Q: And the spindle bipolarity [2]?
A: The spindle bipolarity was “significantly compromised”.

Q: Which potential off-target interactions [3] does the source give for `CCCn1c(=O)c2ccccc2n2c(S)nnc12` [Compound 21, 4-Propyl-1-thioxo-2,4-dihydro-[1,2,4]triazolo[4,3-a]quinazolin-5(1H)-one] here?
A: Its potential off-target interactions is “not detected”.

Q: What about the “ability” value (HeLa cells) of the same compound?
A: The value was “lacked a detectable level of cellular response”.

Q: What about the “PAMPA” value [4] of the same compound?
A: The value was 370 nm/s.

Q: For `CCCCn1c(=O)c2ccccc2n2c(S)nnc12` [Compound 23, 4-Butyl-1-thioxo-2,4-dihydro-[1,2,4]triazolo[4,3-a]quinazolin-5(1H)-one], which “major metabolite (LC–MS/MS)” value [5] is on record?
A: The value was “glucuronidation is the major metabolite”.

Q: What about the “PAMPA” value [4] of the same compound?
A: Its value is 775 nm/s.

Q: Which “ability” value (HeLa cells) does the source give for `CCCn1c(=O)c2cc(F)ccc2n2c(=S)[nH]nc12` [Compound 64, 7-Fluoro-4-propyl-1-thioxo-2,4-dihydro-[1,2,4]triazolo[4,3-a]-quinazolin-5(1H)-one] here?
A: Its value is “lacked a detectable level of cellular response”.

Q: And the “PAMPA” value [4]?
A: Its value is 1950 nm/s.
